≈ marks a conversion by molar mass, not a printed value. Calls of active or inactive are those of the source. No cut-off for these calls is given here.
Columns and labels:
[1] = test system: Candida albicans; assay: Antifungal activity against Candida albicans SC5314 infected in Caenorhabditis elegans assessed as mortality at 20 nM after 24 hrs by propidium iodide staining based fluorescence microscopic analysis (reference value: 17%); type: functional
[2] = test system: Candida albicans; assay: Antifungal activity against Candida albicans SC5314 cultured in RPMI 1640 media after 24 hrs by broth microdilution method; type: functional; conditions: SC5314, 24 h
[3] = test system: Candida albicans; assay: Antifungal activity against Candida albicans SC5314 cultured in YNB media after 24 hrs by broth microdilution method; type: functional; conditions: SC5314, 24 h
[4] = test system: Candida albicans; assay: Antifungal activity against Candida albicans SC5314 cultured in YNB media after 48 hrs by broth microdilution method; type: functional
[5] = test system: Candida albicans; assay: Antifungal activity against Candida albicans SC5314 cultured in YNB media after 72 hrs by broth microdilution method; type: functional
[6] = test system: Candida albicans; assay: Antifungal activity against fluconazole-resistant Candida albicans isolate 17 cultured in YNB media after 24 hrs by broth microdilution method; type: functional
[7] = test system: Candida albicans; assay: Antifungal activity against fluconazole-resistant Candida albicans isolate 17 cultured in YNB media after 48 hrs by broth microdilution method; type: functional
[8] = test system: Candida albicans; assay: Antifungal activity against fluconazole-resistant Candida albicans isolate 17 cultured in YNB media after 72 hrs by broth microdilution method; type: functional
[9] = test system: Candida albicans; assay: Antifungal activity against fluconazole-resistant Candida albicans isolate g5 cultured in YNB media after 24 hrs by broth microdilution method; type: functional
[10] = test system: Candida albicans; assay: Antifungal activity against fluconazole-resistant Candida albicans isolate g5 cultured in YNB media after 48 hrs by broth microdilution method; type: functional
[11] = test system: Candida albicans; assay: Antifungal activity against fluconazole-resistant Candida albicans isolate g5 cultured in YNB media after 72 hrs by broth microdilution method; type: functional
[12] = test system: Saccharomyces cerevisiae; assay: Antifungal activity against Saccharomyces cerevisiae SC XH1549 cultured in YNB media after 24 hrs by broth microdilution method; type: functional; conditions: SC XH1549, 24 h
[13] = test system: Saccharomyces cerevisiae; assay: Antifungal activity against Saccharomyces cerevisiae SC XH1549 cultured in YNB media after 48 hrs by broth microdilution method; type: functional
[14] = test system: Saccharomyces cerevisiae; assay: Antifungal activity against Saccharomyces cerevisiae SC XH1549 cultured in YNB media after 72 hrs by broth microdilution method; type: functional
[15] = test system: Candida parapsilosis; assay: Antifungal activity against Candida parapsilosis ATCC 22019 cultured in YNB media after 24 hrs by broth microdilution method; type: functional; conditions: Lodderomyces parapsilosis, ATCC 22019, 24 h
[16] = test system: Candida parapsilosis; assay: Antifungal activity against Candida parapsilosis ATCC 22019 cultured in YNB media after 48 hrs by broth microdilution method; type: functional
[17] = test system: Candida parapsilosis; assay: Antifungal activity against Candida parapsilosis ATCC 22019 cultured in YNB media after 72 hrs by broth microdilution method; type: functional
[18] = Inhibition of Candida albicans AHAS catalytic subunit using pyruvate as substrate measured after 30 mins by colorimetric method
[19] = Lodderomyces parapsilosis, ATCC 22019, 48 h
[20] = Lodderomyces parapsilosis, ATCC 22019, 72 h

Compound | MIC [2] [µg/mL] | MIC [3] [µg/mL] | Ki [18] [nM] | pKi [18] | other results
OC(Cn1cncn1)(Cn1cncn1)c1ccc(F)cc1F [FLUCONAZOLE] | 0.25 (≈ 0.816 µM) | 0.25 (≈ 0.816 µM) |  |  | Activity [1]: 5%; MIC [4]: inactive; MIC [5]: inactive; MIC [6]: inactive; MIC [7]: inactive; MIC [8]: inactive; MIC [9]: inactive; MIC [10]: inactive; MIC [11]: inactive; MIC [12]: 0.25 µg/mL (≈ 0.816 µM); MIC [13]: inactive; MIC [14]: inactive; MIC [15]: 0.25 µg/mL (≈ 0.816 µM); MIC [16]: inactive; MIC [17]: inactive
C[C@@H]1[C@H](O)[C@@H](C)/C=C/C=C/C=C/C=C/C=C/C=C/C=C/[C@H](O[C@@H]2O[C@H](C)[C@@H](O)[C@H](N)[C@@H]2O)C[C@@H]2O[C@](O)(C[C@@H](O)C[C@@H](O)[C@H](O)CC[C@@H](O)C[C@@H](O)CC(=O)O[C@H]1C)C[C@H](O)[C@H]2C(=O)O [AMPHOTERICIN B] | 1.56 (≈ 1.69 µM) |  |  |  | MIC [12]: 2.5 µg/mL (≈ 2.71 µM); MIC ([13]; SC XH1549, 48 h): 2.5 µg/mL (≈ 2.71 µM); MIC ([14]; SC XH1549, 72 h): 2.5 µg/mL (≈ 2.71 µM); MIC [15]: 2.5 µg/mL (≈ 2.71 µM); MIC [16, 19]: 2.5 µg/mL (≈ 2.71 µM); MIC [17, 20]: 2.5 µg/mL (≈ 2.71 µM)
CCOC(=O)c1ccccc1OS(=O)(=O)NC(=O)Nc1nc(OC)cc(OC)n1 |  | 1.25 (≈ 2.93 µM) | 6.3 |  | MIC ([4]; SC5314, 48 h): 2.5 µg/mL (≈ 5.86 µM); MIC ([5]; SC5314, 72 h): 2.5 µg/mL (≈ 5.86 µM); MIC ([6]; isolate 17, 24 h): 2.5 µg/mL (≈ 5.86 µM); MIC ([7]; isolate 17, 48 h): 5 µg/mL (≈ 11.7 µM); MIC ([8]; isolate 17, 72 h): 5 µg/mL (≈ 11.7 µM); MIC ([9]; isolate g5, 24 h): 2.5 µg/mL (≈ 5.86 µM); MIC ([10]; isolate g5, 48 h): 2.5 µg/mL (≈ 5.86 µM); MIC ([11]; isolate g5, 72 h): 2.5 µg/mL (≈ 5.86 µM); MIC [12]: 2.5 µg/mL (≈ 5.86 µM); MIC ([13]; SC XH1549, 48 h): 5 µg/mL (≈ 11.7 µM); MIC ([14]; SC XH1549, 72 h): 5 µg/mL (≈ 11.7 µM); MIC [15]: 1.25 µg/mL (≈ 2.93 µM); MIC [16, 19]: 2.5 µg/mL (≈ 5.86 µM); MIC [17, 20]: 2.5 µg/mL (≈ 5.86 µM)
Cc1cc(C)nc(NC(=O)[N-]S(=O)(=O)Oc2ccccc2C(=O)OCCCl)n1.[Na+] | > 100 | > 100 | 3360 | 5.48 | 
COC(=O)c1ccccc1OS(=O)(=O)[N-]C(=O)Nc1nc(I)cc(OC)n1.[Na+] | > 100 | > 100 | 66 | 7.18 | 
Cc1cc(Cl)nc(NC(=O)[N-]S(=O)(=O)Oc2ccccc2OCCI)n1.[Na+] | > 100 | > 100 | 885 | 6.05 | 
COc1cc(Br)nc(NC(=O)[N-]S(=O)(=O)Oc2ccccc2C(=O)OCCCl)n1.[Na+] | > 100 | > 100 | 379 | 6.41 | 
COC(=O)c1ccccc1OS(=O)(=O)[N-]C(=O)Nc1nc(C)cc(Cl)n1.[Na+] | > 100 | > 100 | 85.5 | 7.06 | 
COc1cc(Br)nc(NC(=O)[N-]S(=O)(=O)Oc2ccccc2C(=O)OCCI)n1.[Na+] | > 100 | > 100 | 980 | 6.01 | 
CCCOC(=O)c1ccccc1OS(=O)(=O)[N-]C(=O)Nc1nc(C)cc(Cl)n1.[Na+] | > 100 | > 100 | 35500 |  | 
CCOc1ccccc1OS(=O)(=O)[N-]C(=O)Nc1nc(OC)cc(OC)n1.[Na+] |  | 0.625 | 22.1 |  | MIC ([4]; SC5314, 48 h): 1.25 µg/mL; MIC ([5]; SC5314, 72 h): 1.25 µg/mL; MIC ([6]; isolate 17, 24 h): 1.25 µg/mL; MIC ([7]; isolate 17, 48 h): 2.5 µg/mL; MIC ([8]; isolate 17, 72 h): 2.5 µg/mL; MIC ([9]; isolate g5, 24 h): 1.25 µg/mL; MIC ([10]; isolate g5, 48 h): 1.25 µg/mL; MIC ([11]; isolate g5, 72 h): 2.5 µg/mL; MIC [12]: 5 µg/mL; MIC ([13]; SC XH1549, 48 h): 5 µg/mL; MIC ([14]; SC XH1549, 72 h): 5 µg/mL; MIC [15]: 1.25 µg/mL; MIC [16, 19]: 2.5 µg/mL; MIC [17, 20]: 2.5 µg/mL
COc1cc(C)nc(NC(=O)[N-]S(=O)(=O)Oc2ccccc2OCCI)n1.[Na+] | > 100 | 10 | 91 | 7.04 | 
CCOC(=O)c1ccc(OS(=O)(=O)[N-]C(=O)Nc2nc(Cl)cc(OC)n2)cc1.[Na+] | > 100 | > 100 | 15400 | 4.81 | 
CCOC(=O)c1ccc(OS(=O)(=O)[N-]C(=O)Nc2nc(OC)cc(OC)n2)cc1.[Na+] | > 100 | > 100 | > 50000 |  | 
Cc1cc(Cl)nc(NC(=O)[N-]S(=O)(=O)Oc2ccccc2C(=O)Oc2ccccc2)n1.[Na+] | > 100 | > 100 | > 50000 |  | 
COc1cc(Cl)nc(NC(=O)[N-]S(=O)(=O)Oc2ccccc2C(=O)OCCI)n1.[Na+] | > 100 | > 100 | 547 | 6.26 | 
COc1cc(C)nc(NC(=O)[N-]S(=O)(=O)Oc2ccc([N+](=O)[O-])cc2)n1.[Na+] | > 100 | > 100 | > 50000 |  | 
Cc1cc(C)nc(NC(=O)[N-]S(=O)(=O)Oc2ccccc2C(=O)OCCI)n1.[Na+] | > 100 | > 100 | 15000 | 4.82 | 
Cc1cc(C)nc(NC(=O)[N-]S(=O)(=O)Oc2ccccc2OCCCl)n1.[Na+] | > 100 | > 100 | 822 | 6.08 | 
COc1cc(OC)nc(NC(=O)[N-]S(=O)(=O)Oc2ccccc2C(=O)OC(C)C)n1.[Na+] | > 100 | 20 | 405 | 6.4 | 
CCOC(=O)c1ccccc1OS(=O)(=O)[N-]C(=O)Nc1nc(C)cc(C)n1.[Na+] | > 100 | > 100 | 750 | 6.13 | 
Cc1cc(C)nc(NC(=O)[N-]S(=O)(=O)Oc2ccccc2C(=O)Oc2ccccc2)n1.[Na+] | > 100 | > 100 | 25700 | 4.6 | 
CCCOC(=O)c1ccccc1OS(=O)(=O)[N-]C(=O)Nc1nc(C)cc(C)n1.[Na+] | > 100 | > 100 | 2690 | 5.57 | 
COc1cc(C)nc(NC(=O)[N-]S(=O)(=O)Oc2ccccc2C(=O)OC(C)C)n1.[Na+] | > 100 | 80 | 268 |  | 
Cc1cc(Cl)nc(NC(=O)[N-]S(=O)(=O)Oc2ccccc2C(=O)OCCI)n1.[Na+] | > 100 | > 100 | 2330 | 5.64 | 
CCOC(=O)c1cccc(OS(=O)(=O)[N-]C(=O)Nc2nc(C)cc(C)n2)c1.[Na+] | > 100 | > 100 | 36800 | 4.44 | 
CCCOC(=O)c1ccccc1OS(=O)(=O)[N-]C(=O)Nc1nc(C)cc(OC)n1.[Na+] | > 100 | > 100 | 1490 |  | 
COc1cc(Br)nc(NC(=O)[N-]S(=O)(=O)Oc2ccccc2OCCI)n1.[Na+] | > 100 | > 100 | 478 | 6.33 | 
